According to patent US10227333B2, “Inhibition of OLIG2 activity” (Curtana Pharmaceuticals, Inc., priority 2015, dated 2019):

Columns and labels:
GBM4 cells = test: GBM4 viability assay (Cell Titer Glo luminescence); type: cell-based; conditions: 72 h; human glioblastoma neurosphere cells GBM4, 3 days incubation at 37° C., inhibition of cell growth by Cell Titer Glo luminescence
Procedure: (§1) Cell culture medium was prepared from a NSA proliferation kit (Neurocult) and NeuroCult supplements (Stemcell Tech Cat. #05751) and treated with 20 μL of 10 μg/mL rh EGF, 10 μL of 10 μg/mL rh bFGF and 10 μL of 0.2% Heparin. In this medium, human glioblastoma cells were cultured in ultra-low attachment tissue culture flasks until 1×10^6 cells ml was achieved (GBM4 and GBM8 are distinct neuro sphere cell cultures derived from these human patient tissues). GBM4 and GBM8 cells were dissociated and 10 mL of media containing 4000 human glioblastoma cells per 90 uL were transferred to an ultra-low binding 96-well plate and incubated at 37° C. overnight. On the following day, 10 μL of a 1% DMSO solution of test compound in assay medium was added to wells containing the cell suspension and the mixture incubated at 37° C. for 3 days. At this time, the plate was removed from the incubator and allowed to reach room temperature. After about 30 minutes, 50 μL of Cell Titer Glo solution was added to each well and the plate shaken for 1 minute at low speed. After 10 minutes luminescence was recorded using a Tecan Safire2 reader.
(§2) Reduction in luminescence compared to DMSO only control wells was used to determine the percentage inhibition of cell growth. IC50s were calculated using the % inhibition of luminescence for serial dilutions of compounds fitted to a 4-parameter fit within the Prism (San Diego) curve fitting program.

GBM8 cells = test: GBM8 viability assay (Cell Titer Glo luminescence); type: cell-based; conditions: 72 h; human glioblastoma neurosphere cells GBM8, 3 days incubation at 37° C., inhibition of cell growth by Cell Titer Glo luminescence; read-out: FBM8 (IC50)
Procedure: as §1, §2

CCN1CCCC(Nc2cc(C)nc(NC(=N)Nc3ccc(Cl)c(Cl)c3)n2)C1 (racemic) [Compound 7, (±)-2-[3-(3,4-dichlorophenyl)guanidino]-4-(1-ethyl-3-piperidylamino)-6-methylpyrimidine]
IC50 (GBM4 cells): < 10 µM
IC50 (GBM8 cells): < 10 µM

Cc1cc(Oc2ccncc2)nc(NC(=N)Nc2ccc(Cl)c(Cl)c2)n1 [Compound 8, 1-(3,4-dichlorophenyl)-3-[6-methyl-4-(4-pyridyloxy)-2-pyrimidinyl]guanidine]
IC50 (GBM4 cells): > 30 µM
IC50 (GBM8 cells): > 30 µM

Cc1cc(NC2CCNCC2)nc(NC(=N)Nc2ccc(Cl)c(Cl)c2)n1 [Compound 9, 2-[3-(3,4-dichlorophenyl)guanidino]-6-methyl-4-(4-piperidylamino)pyrimidine]
IC50 (GBM4 cells): > 30 µM
IC50 (GBM8 cells): > 30 µM

Cc1cc(N[C@H]2CCCNC2)nc(NC(=N)Nc2ccc(Cl)c(Cl)c2)n1 [Compound 10, (5)-1-(3,4-dichlorophenyl)-3-(4-methyl-6-(piperidin-3-ylamino)pyrimidin-2-yl)guanidine]
IC50 (GBM4 cells): < 10 µM
IC50 (GBM8 cells): < 10 µM

Cc1cc(N[C@@H]2CCCNC2)nc(NC(=N)Nc2ccc(Cl)c(Cl)c2)n1 [Compound 11, (R)-1-(3,4-dichlorophenyl)-3-(4-methyl-6-(piperidin-3-ylamino)pyrimidin-2-yl)guanidine]
IC50 (GBM4 cells): < 10 µM
IC50 (GBM8 cells): < 10 µM

CCN1CCC[C@@H](Nc2cc(C)nc(NC(=N)Nc3ccc(Cl)c(Cl)c3)n2)C1 [Compound 12, 4-[(3R)-1-ethyl-3-piperidylamino]-2-[3-(3,4-dichlorophenyl)guanidino]-6-methyl-pyrimidine]
IC50 (GBM4 cells): < 10 µM
IC50 (GBM8 cells): < 10 µM

Cc1cc(Oc2cccnc2)nc(NC(=N)Nc2ccc(Cl)c(Cl)c2)n1 [Compound 13, 1-(3,4-dichlorophenyl)-3-[6-methyl-4-(3-pyridyloxy)-2-pyrimidinyl]guanidine]
IC50 (GBM4 cells): 10 to 30 µM
IC50 (GBM8 cells): > 30 µM

Cc1cc(Nc2cccnc2)nc(NC(=N)Nc2ccc(Cl)c(Cl)c2)n1 [Compound 14, 2-[3-(3,4-dichlorophenyl)guanidino]-6-methyl-4-(3-pyridylamino)pyrimidine]
IC50 (GBM4 cells): < 10 µM
IC50 (GBM8 cells): < 10 µM

Cc1cc(NC2CCCCC2)nc(NC(=N)Nc2ccc(Cl)c(Cl)c2)n1 [Compound 15, 4-(cyclohexylamino)-2-[3-(3,4-dichlorophenyl)guanidino]-6-methylpyrimidine]
IC50 (GBM4 cells): < 10 µM
IC50 (GBM8 cells): < 10 µM

Cc1cc(NC2CCOCC2)nc(NC(=N)Nc2ccc(Cl)c(Cl)c2)n1 [Compound 16, 2-[3-(3,4-dichlorophenyl)guanidino]-6-methyl-4-(tetrahydro-2H-pyran-4-ylamino)-pyrimidine]
IC50 (GBM4 cells): 10 to 30 µM
IC50 (GBM8 cells): < 10 µM

Cc1cc(OC2CCCNC2)nc(NC(=N)Nc2ccc(Cl)c(Cl)c2)n1 (stereo not drawn) [Compound 17, 1-(3,4-dichlorophenyl)-3-[6-methyl-4-(3-piperidyloxy)-2-pyrimidinyl]guanidine]
IC50 (GBM4 cells): 10 to 30 µM
IC50 (GBM8 cells): < 10 µM

CCN1CCCC(Nc2cc(C)nc(NC(=N)N(C)c3ccc(Cl)c(Cl)c3)n2)C1 (stereo not drawn) [Compound 21, 2-[3-(3,4-dichlorophenyl)-3-methylguanidino]-4-[1-ethyl-3-piperidylamino]-6-methylpyrimidine]
IC50 (GBM4 cells): 10 to 30 µM
IC50 (GBM8 cells): > 30 µM

CCN1CCC[C@H](Nc2cc(C)nc(NC(=N)Nc3ccc(Cl)c(Cl)c3)n2)C1 [Compound 24, (S)-1-(3,4-dichlorophenyl)-3-(4-(1-ethylpiperidin-3-ylamino)-6-methylpyrimidin-2-yl)guanidine]
IC50 (GBM4 cells): < 10 µM
IC50 (GBM8 cells): < 10 µM

CCN1CCC(Oc2cc(C)nc(NC(=N)Nc3ccc(Cl)c(Cl)c3)n2)CC1 [Compound 25, 1-(3,4-dichlorophenyl)-3-[4-(1-ethyl-4-piperidyloxy)-6-methyl-2-pyrimidinyl]-guanidine]
IC50 (GBM4 cells): 10 to 30 µM
IC50 (GBM8 cells): 10 to 30 µM

CCN1CCC(Nc2cc(C)nc(NC(=N)Nc3ccc(Cl)c(Cl)c3)n2)CC1 [Compound 26, 2-[3-(3,4-dichlorophenyl)guanidino]-4-(1-ethyl-4-piperidylamino)-6-methylpyrimidine]
IC50 (GBM4 cells): < 10 µM
IC50 (GBM8 cells): < 10 µM

Cc1cc(N2CCN(C)CC2)nc(NC(=N)Nc2ccc(Cl)c(Cl)c2)n1 [Compound 27, 1-(3,4-dichlorophenyl)-3-[6-methyl-4-(4-methyl-1-piperazinyl)-2-pyrimidinyl]-guanidine]
IC50 (GBM4 cells): 10 to 30 µM
IC50 (GBM8 cells): < 10 µM

Cc1cc(N(C)C)nc(NC(=N)Nc2ccc(Cl)c(Cl)c2)n1 [Compound 28, (N-methyl{2-[3-(3,4-dichlorophenyl)guanidino]-6-methyl-4-pyrimidinyl}amino)-methane]
IC50 (GBM4 cells): < 10 µM
IC50 (GBM8 cells): < 10 µM

Cc1cc(N2CCOCC2)nc(NC(=N)Nc2ccc(Cl)c(Cl)c2)n1 [Compound 29, 1-(3,4-dichlorophenyl)-3-(4-methyl-6-morpholino-2-pyrimidinyl)guanidine]
IC50 (GBM4 cells): < 10 µM
IC50 (GBM8 cells): < 10 µM

Cc1cc(NCCCN(C)C)nc(NC(=S)Nc2ccc(Cl)c(Cl)c2)n1 [Compound 31a, 1-{2-[3-(3,4-Dichlorophenyl)thioureido]-6-methyl-4-pyrimidinylamino}-3-(dimethylamino)propane]
IC50 (GBM8 cells): < 10 µM

Cc1cc(NCCCN(C)C)nc(N/C(=N/C#N)Nc2ccc(Cl)c(Cl)c2)n1 [Compound 32, 1-(3,4-Dichlorophenyl)-3-{4-[3-(dimethylamino)propylamino]-6-methyl-2-pyrimidinyl}-2-guanidinecarbonitrile]
IC50 (GBM8 cells): < 10 µM

C/N=C(\Nc1ccc(Cl)c(Cl)c1)Nc1nc(C)cc(NCCCN(C)C)n1 [Compound 33, 1-{2-[3-(3,4-Dichlorophenyl)-2-methylguanidino]-6-methyl-4-pyrimidinylamino}-3-(dimethylamino)propane]
IC50 (GBM8 cells): > 30 µM

Cc1cc(NCCCN(C)C)nc(/N=C(/Nc2ccc(Cl)c(Cl)c2)N(C)C)n1 [Compound 34, 1-{2-[3-(3,4-Dichlorophenyl)-1,1-dimethylguanidino]-6-methyl-4-pyrimidinylamino}-3-(dimethylamino)propane]
IC50 (GBM8 cells): > 30 µM

C/N=C(\Nc1ccc(Cl)c(Cl)c1)Nc1cc(C)cc(NCCCN(C)C)n1 [Compound 35, 1-{6-[3-(3,4-Dichlorophenyl)-2-methylguanidino]-4-methyl-2-pyridylamino}-3-(dimethylamino)propane]
IC50 (GBM8 cells): 10 to 30 µM

Cc1cc(/N=C(/Nc2ccc(Cl)c(Cl)c2)N(C)C)nc(NCCCN(C)C)c1 [Compound 39, 1-{6-[3-(3,4-Dichlorophenyl)-1,1-dimethylguanidino]-4-methyl-2-pyridylamino}-3-(dimethylamino)propane]
IC50 (GBM8 cells): > 30 µM
